Each molecule was assayed against T1, human LMPTP-A (Homo sapiens, UniProt P24666) (assay: Enzyme Assay of Inhibition of LMPTP-A). Settings: phosphatase assay, OMFP or pNPP substrate, 50 mM Bis-Tris pH 6.0, 37° C.
T1 sequence (P24666 1-158): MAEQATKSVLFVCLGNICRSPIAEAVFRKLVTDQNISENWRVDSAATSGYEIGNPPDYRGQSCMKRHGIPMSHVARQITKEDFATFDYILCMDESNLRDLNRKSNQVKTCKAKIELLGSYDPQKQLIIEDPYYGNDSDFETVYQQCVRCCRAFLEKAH
Type: biochemical
Procedure: Example B-1: Enzyme Assay of Inhibition of LMPTP-A
Phosphatase assays were performed in buffer containing 50 mM Bis-Tris, pH 6.0, 1 mM DTT and 0.01% Triton X-100 at 37° C. For assays conducted with 3-O-methylfluorescein phosphate (OMFP) as substrate, fluorescence was monitored continuously at λex=485 and λem=525 nm. For assays conducted with para-nitrophenylphosphate (pNPP) as substrate, the reaction was stopped by addition of 2× reaction volume of 1 M NaOH, and absorbance was measured at 405 nm. IC50 values of compounds disclosed herein were determined from plots of inhibitor concentration versus percentage of enzyme activity. For inhibitor selectivity assays, each PTP was incubated with either 0.4 mM OMFP or 5 mM pNPP in the presence of 40 μM compound or DMSO. […] For the inhibitor reversibility assay, 50 nM human LMPTP-A was pre-incubated with 10 μM of compound disclosed herein or DMSO for 5 min. The enzyme was diluted 100× in phosphatase assay buffer containing 0.4 mM OMFP and fluorescence was measured at the indicated time points.

Row | Molecule | IC50 [µM]
1 | 3-[(3,5-dichloro(4-pyridyl))methyl]-8-(2-5,6,7,8-tetrahydronaphthyl)-3-hydropurine-6-ylamine | < 1
2 | 3-[(3,5-diiodo(4-pyridyl))methyl]-8-(2-methylphenyl)-3-hydropurine-6-ylamine | < 1
3 | 3-[(4-iodo-2-methoxy(3-pyridyl))methyl]-8-(2-methylphenyl)-3-hydropurine-6-ylamine | < 1
4 | Cc1ccccc1-c1nc2c(N)nc(C)n(Cc3c(Cl)ccnc3Cl)c-2n1 [3-[(2,4-dichloro(3-pyridyl))methyl]-2-methyl-8-(2-methylphenyl)-3-hydropurine-6-ylamine] | 1 to 20
5 | Cc1cc(-c2nc3c(N)ncn(Cc4c(Cl)ccnc4Cl)c-3n2)n(C)n1 [3-[(2,4-dichloro(3-pyridyl))methyl]-8-(1,3-dimethylpyrazol-5-yl)-3-hydropurine-6-ylamine] | < 1
6 | Nc1ncn(Cc2c(Cl)ccnc2Cl)c2nc(-c3cc(F)ccc3F)nc1-2 [3-[(2,4-dichloro(3-pyridyl))methyl]-8-(2,5-difluorophenyl)-3-hydropurine-6-ylamine] | < 1
7 | Nc1ncn(Cc2c(Cl)ccnc2Cl)c2nc(-c3ccc4c(c3)CCCC4)nc1-2 [3-[(2,4-dichloro(3-pyridyl))methyl]-8-(2-5,6,7,8-tetrahydronaphthyl)-3-hydropurine-6-ylamine] | < 1
8 | Cc1ccccc1-c1nc2c(N)ncn(Cc3c(Cl)ccnc3Cl)c-2n1 [3-[(2,4-dichloro(3-pyridyl))methyl]-8-(2-methylphenyl)-3-hydropurine-6-ylamine] | < 1
9 | Nc1ncn(Cc2c(Cl)ccnc2Cl)c2nc(Cc3ccc(F)cc3)nc1-2 [3-[(2,4-dichloro(3-pyridyl))methyl]-8-[(4-fluorophenyl)methyl]-3-hydropurine-6-ylamine] | < 1
10 | Nc1ncn(Cc2c(Cl)ccnc2Cl)c2nc(-c3ccccc3)nc1-2 [3-[(2,4-dichloro(3-pyridyl))methyl]-8-phenyl-3-hydropurine-6-ylamine] | < 1
11 | COc1ccnc(OC)c1Cn1cnc(N)c2nc(-c3ccccc3C)nc1-2 [3-[(2,4-dimethoxy(3-pyridyl))methyl]-8-(2-methylphenyl)-3-hydropurine-6-ylamine] | < 1
12 | Cc1nc(C)c(Cn2cnc(N)c3nc(-c4ccccc4C)nc2-3)s1 [3-[(2,4-dimethyl(1,3-thiazol-5-yl))methyl]-8-(2-methylphenyl)-3-hydropurine-6-ylamine] | < 1
13 | Cc1ccccc1-c1nc2c(N)ncn(Cc3c(C)ccnc3C)c-2n1 [3-[(2,4-dimethyl(3-pyridyl))methyl]-8-(2-methylphenyl)-3-hydropurine-6-ylamine] | < 1
14 | Cc1ccnc(C)c1Cn1cnc(N)c2nc(-c3ccccc3)nc1-2 [3-[(2,4-dimethyl(3-pyridyl))methyl]-8-phenyl-3-hydropurine-6-ylamine] | < 1
15 | Cc1ccccc1-c1nc2c(N)ncn(Cc3c(Cl)nc(N)nc3Cl)c-2n1 [3-[(2-amino-4,6-dichloropyrimidin-5-yl)methyl]-8-(2-methylphenyl)-3-hydropurine-6-ylamine] | < 1
16 | Cc1ccccc1-c1nc2c(N)ncn(Cc3cccnc3C)c-2n1 [3-[(2-methyl(3-pyridyl))methyl]-8-(2-methylphenyl)-3-hydropurine-6-ylamine] | < 1
17 | Cc1ccccc1-c1nc2c(N)nc(C)n(Cc3c(Br)cncc3Br)c-2n1 [3-[(3,5-dibromo(4-pyridyl))methyl]-2-methyl-8-(2-methylphenyl)-3-hydropurine-6-ylamine] | 1 to 20
18 | Nc1ncn(Cc2c(Br)cncc2Br)c2nc(-c3ccc4c(c3)CCCC4)nc1-2 [3-[(3,5-dibromo(4-pyridyl))methyl]-8-(2-5,6,7,8-tetrahydronaphthyl)-3-hydropurine-6-ylamine] | < 1
19 | Cc1ccccc1-c1nc2c(N)ncn(Cc3c(Br)cncc3Br)c-2n1 [3-[(3,5-dibromo(4-pyridyl))methyl]-8-(2-methylphenyl)-3-hydropurine-6-ylamine] | < 1
20 | Nc1ncn(Cc2c(Br)cncc2Br)c2nc(-c3cccc4c3CCCC4)nc1-2 [3-[(3,5-dibromo(4-pyridyl))methyl]-8-(5,6,7,8-tetrahydronaphthyl)-3-hydropurine-6-ylamine] | > 20
21 | Nc1ncn(Cc2c(Br)cncc2Br)c2nc(-c3cnn4ccccc34)nc1-2 [3-[(3,5-dibromo(4-pyridyl))methyl]-8-(8-hydropyrazolo[1,5-a]pyridin-3-yl)-3-hydropurine-6-ylamine] | < 1

Row | Molecule | IC50 [µM]
22 | Nc1ncn(Cc2c(Br)cncc2Br)c2nc(-c3ccccc3)nc1-2 [3-[(3,5-dibromo(4-pyridyl))methyl]-8-phenyl-3-hydropurine-6-ylamine] | < 1
23 | Cc1ccccc1-c1nc2c(N)nc(C)n(Cc3c(Cl)cncc3Cl)c-2n1 [3-[(3,5-dichloro(4-pyridyl))methyl]-2-methyl-8-(2-methylphenyl)-3-hydropurine-6-ylamine] | 1 to 20
24 | Cc1cc(-c2nc3c(N)ncn(Cc4c(Cl)cncc4Cl)c-3n2)n(C)n1 [3-[(3,5-dichloro(4-pyridyl))methyl]-8-(1,3-dimethylpyrazol-5-yl)-3-hydropurine-6-ylamine] | < 1
25 | Cn1cnc2cc(-c3nc4c(N)ncn(Cc5c(Cl)cncc5Cl)c-4n3)ccc21 [3-[(3,5-dichloro(4-pyridyl))methyl]-8-(1-methylbenzimidazol-5-yl)-3-hydropurine-6-ylamine] | < 1
26 | Cn1cnc2ccc(-c3nc4c(N)ncn(Cc5c(Cl)cncc5Cl)c-4n3)cc21 [3-[(3,5-dichloro(4-pyridyl))methyl]-8-(1-methylbenzimidazol-6-yl)-3-hydropurine-6-ylamine] | < 1
27 | Nc1ncn(Cc2c(Cl)cncc2Cl)c2nc(-c3cc(F)ccc3F)nc1-2 [3-[(3,5-dichloro(4-pyridyl))methyl]-8-(2,5-difluorophenyl)-3-hydropurine-6-ylamine] | < 1
28 | Nc1ncn(Cc2c(Cl)cncc2Cl)c2nc(-c3cccc4c3CCCC4)nc1-2 [3-[(3,5-dichloro(4-pyridyl))methyl]-8-(5,6,7,8-tetrahydronaphthyl)-3-hydropurine-6-ylamine] | > 20
29 | Nc1ncn(Cc2c(Cl)cncc2Cl)c2nc(-c3cnn4ccccc34)nc1-2 [3-[(3,5-dichloro(4-pyridyl))methyl]-8-(8-hydropyrazolo[1,5-a]pyridin-3-yl)-3-hydropurine-6-ylamine] | < 1
30 | Nc1ncn(Cc2c(Cl)cncc2Cl)c2nc(-c3ccn4nccc4c3)nc1-2 [3-[(3,5-dichloro(4-pyridyl))methyl]-8-(8-hydropyrazolo[1,5-a]pyridin-5-yl)-3-hydropurine-6-ylamine] | < 1
31 | Nc1ncn(Cc2c(Cl)cncc2Cl)c2nc(-c3cnccc3C(F)(F)F)nc1-2 [3-[(3,5-dichloro(4-pyridyl))methyl]-8-[4-(trifluoromethyl)(3-pyridyl)]-3-hydropurine-6-ylamine] | < 1
32 | Nc1ncn(Cc2c(Cl)cncc2Cl)c2nc(Cc3ccc(F)cc3)nc1-2 [3-[(3,5-dichloro(4-pyridyl))methyl]-8-[(4-fluorophenyl)methyl]-3-hydropurine-6-ylamine] | < 1
33 | COc1cncc(OC)c1Cn1cnc(N)c2nc(-c3ccccc3C)nc1-2 [3-[(3,5-dimethoxy(4-pyridyl))methyl]-8-(2-methylphenyl)-3-hydropurine-6-ylamine] | < 1
34 | Cc1ccccc1-c1nc2c(N)ncn(Cc3sccc3Cl)c-2n1 [3-[(3-chloro(2-thienyl))methyl]-8-(2-methylphenyl)-3-hydropurine-6-ylamine] | < 1
35 | Nc1ncn(Cc2sccc2Cl)c2nc(-c3ccccc3)nc1-2 [3-[(3-chloro(2-thienyl))methyl]-8-phenyl-3-hydropurine-6-ylamine] | < 1
36 | Cc1ccccc1-c1nc2c(N)ncn(Cc3ccncc3Cl)c-2n1 [3-[(3-chloro(4-pyridyl))methyl]-8-(2-methylphenyl)-3-hydropurine-6-ylamine] | < 1
37 | Cc1ccccc1-c1nc2c(N)ncn(Cc3ccncc3F)c-2n1 [3-[(3-fluoro(4-pyridyl))methyl]-8-(2-methylphenyl)-3-hydropurine-6-ylamine] | < 1
38 | Cc1ccccc1-c1nc2c(N)ncn(Cc3c(Cl)ncnc3Cl)c-2n1 [3-[(4,6-dichloropyrimidin-5-yl)methyl]-8-(2-methylphenyl)-3-hydropurine-6-ylamine] | < 1
39 | Nc1ncn(Cc2c(Cl)ncnc2Cl)c2nc(-c3ccccc3)nc1-2 [3-[(4,6-dichloropyrimidin-5-yl)methyl]-8-phenyl-3-hydropurine-6-ylamine] | < 1
40 | Cc1ccccc1-c1nc2c(N)nc(C)n(Cc3c(Br)cnn3C)c-2n1 [3-[(4-bromo-1-methylpyrazol-5-yl)methyl]-2-methyl-8-(2-methylphenyl)-3-hydropurine-6-ylamine] | 1 to 20
41 | Cc1ccccc1-c1nc2c(N)ncn(Cc3c(Br)cnn3C)c-2n1 [3-[(4-bromo-1-methylpyrazol-5-yl)methyl]-8-(2-methylphenyl)-3-hydropurine-6-ylamine] | < 1
42 | Cn1ncc(Br)c1Cn1cnc(N)c2nc(-c3ccccc3)nc1-2 [3-[(4-bromo-1-methylpyrazol-5-yl)methyl]-8-phenyl-3-hydropurine-6-ylamine] | < 1

— patent US20230102520A1, “INHIBITORS OF LOW MOLECULAR WEIGHT PROTEIN TYROSINE PHOSPHATASE (LMPTP) AND USES THEREOF” (Sanford Burnham Prebys Medical Discovery Institute, priority 2019, published 2023)
